Measured values: article PMC8848768, “Synthesis and evaluation of potent yaku'amide A analogs” (Chemical Science, 2022)
Where two headings read alike, the source gives them in different places. Square brackets hold non-standard residues; d marks the D form. Peptide text beside a SMILES is read from it. * marks the point of attachment. NH((S)-1-NMe2-3-Me-but-2-yl) = CC(C)[C@@H](CN(C)C)N*; dVal(3-OH) = CC(C)(O)[C@@H](N)C(=O)O; d(aIle) = CC[C@H](C)[C@@H](N)C(=O)O; Val(3-OH) = CC(C)(O)[C@H](N)C(=O)O; ΔVal = CC(C)=C(N)C(=O)O

Assays:
[1] = system: SNUC1; test: cells; details: read-out: Aver IC50, SNUC1
Procedure: (§1) The antiproliferative activity profiles of 1a, its full-length analogs 2a and 2b, and its partial structures (23, 24, 26, and 30) were determined by in vitro screening in 72 hours MTS cell proliferation assays against a panel of 18 different human cancer cell lines. […] The three peptides were also evaluated for their antiproliferative activity against the lung fibroblast MRC5 cell line.
(§2) Cells (40 µ L) are added into individual wells of a 384-well black/clear bottom plate on day zero at concentrations enabling continuous log growth over the course of the assay. On day one, compounds (or DMSO) are transferred using an ATS-liquid handler (100 nL per well) to individual wells containing cells and the cells are treated for 72 hours (37 °C, 5% CO 2) prior to measuring proliferation using MTS reagent following manufacturer’s instructions. Net OD values are determined by subtracting the average OD values of cells (measured on day 1, T = 0) from average total OD value of cells (measured on day 4, T = 72h). IC 50 values are calculated using proprietary software (IC 50 values normalized against all compounds). Results represent n>2 independent studies (in duplicate).
(§3) Table S1. Antiproliferative Data of Compounds 1a, 2a, 2b, 23, 24, 26, and 30.
(§4) Table S2. Human Cell Line Descriptions.
(§5) Human Cell Line* Description
(§6) *All cells were obtained from ATCC and are authenticated

[2] = system: MV411; test: cells; details: read-out: Aver IC50, MV411
Procedure: as §1, §2, §3, §4, §5, §6

[3] = system: BXPC3; test: cells; details: read-out: Aver IC50, BXPC3
Procedure: as §1, §2, §3, §4, §5, §6

[4] = system: THP1; test: cells; details: read-out: Aver IC50, THP1
Procedure: as §1, §2, §3, §4, §5, §6

[5] = system: NCIH1048; test: cells; details: read-out: Aver IC50, NCIH1048
Procedure: as §1, §2, §3, §4, §5, §6

[6] = system: CALU6; test: cells; details: read-out: Aver IC50, CALU6
Procedure: as §1, §2, §3, §4, §5, §6

[7] = system: PANC1005; test: cells; details: read-out: Aver IC50, PANC1005
Procedure: as §1, §2, §3, §4, §5, §6

[8] = system: HCT116; test: cells; details: read-out: Aver IC50, HCT116
Procedure: as §1, §2, §3, §4, §5, §6

[9] = system: lung fibroblast MRC5 cell line; test: cells; details: read-out: Aver IC50, MRC5
Procedure: as §1, §2, §3, §4, §5, §6

[10] = system: JURKAT; test: cells; details: read-out: Aver IC50, JURKAT
Procedure: as §1, §2, §3, §4, §5, §6

[11] = system: HT29; test: cells; details: read-out: Aver IC50, HT29
Procedure: as §1, §2, §3, §4, §5, §6

[12] = system: COLO678; test: cells; details: read-out: Aver IC50, COLO678
Procedure: as §1, §2, §3, §4, §5, §6

[13] = system: RAMOS; test: cells; details: read-out: Aver IC50, RAMOS
Procedure: as §1, §2, §3, §4, §5, §6

[14] = system: OVCAR3; test: cells; details: read-out: Aver IC50, OVCAR3
Procedure: as §1, §2, §3, §4, §5, §6

[15] = system: A549; test: cells; details: read-out: Aver IC50, A549
Procedure: as §1, §2, §3, §4, §5, §6

[16] = system: HL60; test: cells; details: read-out: Aver IC50, HL60
Procedure: as §1, §2, §3, §4, §5, §6

[17] = system: U937; test: cells; details: read-out: Aver IC50, U937
Procedure: as §1, §2, §3, §4, §5, §6

[18] = system: A375; test: cells; details: read-out: Aver IC50, A375
Procedure: as §1, §2, §3, §4, §5, §6

[19] = system: MCF7; details: read-out: Aver IC50, MCF7; MCF7 (Breast Carcinoma); MTS, 72 hours, 37 °C, 5% CO2, 384-well; n>2 independent studies (in duplicate)
Procedure: as §1, §2, §3, §4, §5, §6

[20] = SNUC1 (Colon Carcinoma), MTS, 72 hours, 37 °C, 5% CO2, 384-well, n>2 independent studies (in duplicate)
[21] = MV411 (Acute Myeloid Leukemia), MTS, 72 hours, 37 °C, 5% CO2, 384-well, n>2 independent studies (in duplicate)
[22] = BXPC3 (Pancreatic - Adenocarcinoma), MTS, 72 hours, 37 °C, 5% CO2, 384-well, n>2 independent studies (in duplicate)
[23] = THP1 (Acute Monocytic Leukemia), MTS, 72 hours, 37 °C, 5% CO2, 384-well, n>2 independent studies (in duplicate)
[24] = NCIH1048 (Lung - SCLC), MTS, 72 hours, 37 °C, 5% CO2, 384-well, n>2 independent studies (in duplicate)
[25] = CALU6 (Lung - Adenocarcinoma), MTS, 72 hours, 37 °C, 5% CO2, 384-well, n>2 independent studies (in duplicate)
[26] = PANC1005 (Pancreatic - Adenocarcinoma), MTS, 72 hours, 37 °C, 5% CO2, 384-well, n>2 independent studies (in duplicate)
[27] = HCT116 (Colon Carcinoma), MTS, 72 hours, 37 °C, 5% CO2, 384-well, n>2 independent studies (in duplicate)
[28] = MRC5 (Lung Fibroblast, noncancerous), MTS, 72 hours, 37 °C, 5% CO2, 384-well, n>2 independent studies (in duplicate)
[29] = JURKAT (acute T-cell leukemia), MTS, 72 hours, 37 °C, 5% CO2, 384-well, n>2 independent studies (in duplicate)
[30] = HT29 (Colon Carcinoma), MTS, 72 hours, 37 °C, 5% CO2, 384-well, n>2 independent studies (in duplicate)
[31] = COLO678 (Colon Carcinoma), MTS, 72 hours, 37 °C, 5% CO2, 384-well, n>2 independent studies (in duplicate)
[32] = RAMOS (Burkitt's lymphoma), MTS, 72 hours, 37 °C, 5% CO2, 384-well, n>2 independent studies (in duplicate)
[33] = OVCAR3 (Ovary - Adenocarcinoma), MTS, 72 hours, 37 °C, 5% CO2, 384-well, n>2 independent studies (in duplicate)
[34] = A549 (Lung - NSCLC), MTS, 72 hours, 37 °C, 5% CO2, 384-well, n>2 independent studies (in duplicate)
[35] = HL60 (Leukema - Promyelocytic), MTS, 72 hours, 37 °C, 5% CO2, 384-well, n>2 independent studies (in duplicate)
[36] = U937 (Pro-monocytic, Human Myeloid Leukemia), MTS, 72 hours, 37 °C, 5% CO2, 384-well, n>2 independent studies (in duplicate)
[37] = A375 (Malignant Melanoma), MTS, 72 hours, 37 °C, 5% CO2, 384-well, n>2 independent studies (in duplicate)

Row | SMILES | IC50 [1, 20] | IC50 [2, 21] | IC50 [3, 22] | IC50 [4, 23] | IC50 [5, 24] | IC50 [6, 25] | IC50 [7, 26] | IC50 [8, 27] | IC50 [9, 28] | IC50 [10, 29] | IC50 [11, 30] | IC50 [12, 31] | IC50 [13, 32] | IC50 [14, 33] | IC50 [15, 34] | IC50 [16, 35] | IC50 [17, 36] | IC50 [18, 37] | other results
1 | CC[C@H](C)[C@@H](NC(C)=O)C(=O)N[C@@H](C(=O)N[C@H](C(=O)NC(C(=O)N[C@H](C)C(=O)N[C@@H](C(=O)N[C@H](C(=O)NC(C(=O)N[C@H](CN(C)C)C(C)C)=C(C)C)C(C)C)C(C)C)=C(C)C)C(C)(C)O)C(C)(C)O [Compound 24] (Ac-[d(aIle)][dVal(3-OH)][Val(3-OH)][ΔVal][dA][dV]V[ΔVal]-{NH((S)-1-NMe2-3-Me-but-2-yl)}) | 24.9 µM | > 25 µM | > 25 µM | > 25 µM | > 25 µM | > 25 µM | > 25 µM | > 25 µM | > 25 µM | > 25 µM | > 25 µM | > 25 µM | > 25 µM | > 25 µM | > 25 µM | > 25 µM | > 25 µM | > 25 µM | 
2 | CCC(CC)=C(NC(=O)CNC(=O)C(NC(=O)[C@@H](NC(=O)C(C)(C)C(=O)[C@@H](C)CC(C)C)[C@](C)(O)CC)=C(C)C)C(=O)N[C@@H](C(=O)NCCN(C)C)C(C)C [Compound 26] | > 25 µM | > 25 µM | > 25 µM | > 25 µM | > 25 µM | > 25 µM | > 25 µM | > 25 µM | > 25 µM | > 25 µM | > 25 µM | > 25 µM | > 25 µM | > 25 µM | > 25 µM | > 25 µM | > 25 µM | > 25 µM | IC50 [19]: 6.34 µM
3 | CC(=O)O[C@H]1C(=O)[C@@]2(C)[C@H]([C@H](OC(=O)c3ccccc3)[C@]3(O)C[C@H](OC(=O)[C@H](O)[C@@H](NC(=O)c4ccccc4)c4ccccc4)C(C)=C1C3(C)C)[C@]1(OC(C)=O)CO[C@@H]1C[C@@H]2O [Paclitaxel, reference compound] |  |  |  |  |  |  |  |  |  |  |  |  |  |  |  |  |  |  | IC50 ([1]; Homo sapiens, SNU-C1, 72 h): 0.0265 µM; IC50 ([2]; Homo sapiens, MV4-11, 72 h): 0.0044 µM; IC50 ([3]; Homo sapiens, BXPC-3, 72 h): 0.0055 µM; IC50 ([4]; Homo sapiens, THP-1, 72 h): 0.0068 µM; IC50 ([5]; Homo sapiens, NCI-H1048, 72 h): 0.0047 µM; IC50 ([6]; Homo sapiens, Calu-6, 72 h): 0.0036 µM; IC50 ([7]; Homo sapiens, Panc1005, 72 h): 0.0074 µM; IC50 ([8]; Homo sapiens, HCT-116, 72 h): 0.0034 µM; IC50 ([9]; Homo sapiens, MRC5, 72 h): 0.0088 µM; IC50 ([10]; Homo sapiens, Jurkat, 72 h): 0.0053 µM; IC50 ([11]; Homo sapiens, HT-29, 72 h): 0.006 µM; IC50 ([12]; Homo sapiens, COLO-678, 72 h): 0.024 µM; IC50 ([13]; Homo sapiens, Ramos, 72 h): 0.0059 µM; IC50 ([14]; Homo sapiens, OVCAR-3, 72 h): 0.003 µM; IC50 ([15]; Homo sapiens, A549, 72 h): 0.0046 µM; IC50 ([16]; Homo sapiens, HL-60, 72 h): 0.0097 µM; IC50 ([17]; Homo sapiens, U-937, 72 h): 0.003 µM; IC50 ([18]; Homo sapiens, A-375, 72 h): 0.0077 µM
